Experimental data reported in ChEMBL document CHEMBL1201862, “PubChem BioAssay data set” (2004).
Calls of active or inactive are those of the source.

Legend:
[1] = decrease of insulin promoter-GFP reporter – imaging, high-content screening, mouse beta cells (AID 1628); type: functional; details: MIN6
Streptococcus = experiment: GAS UMAA2166 growth inhibition – luminescence, BacTiterGlo, counter-screen for streptokinase expression inhibitor project, dose response (AID 1915); type: functional, organism-based;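 note: potency for reduction of bacterial viability or growth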
[2] = tested on: Streptococcus sp. 'group A'; experiment: Streptococcus pyogenes SK(-)GAS viability under kanamycin – luminescence, BacTiterGlo, confirmation, counter-screen for streptokinase expression inhibitor project, dose response (AID 1900); type: functional, organism-based
[3] = reduction of Shn3 3'UTR-driven luciferase in osteoblasts – cell-based, Clone20 osteoblasts, firefly luciferase, cherry-picked, dose response (AID 624132); type: functional;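 note: firefly luciferase luminescence from reporter carrying the Shn3 3'UTR in osteoblasts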
Vero [4] = experiment: cells; type: functional; details: Chlorocebus sabaeus
INS1 = experiment: INS-1E survival protection against cytokine death – cell-based, luminescence, retest, dose response (AID 449756); type: functional; details: Rattus norvegicus;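 note: cell death triggered by IL-1 beta plus TNF-alpha plus IFN-gamma mixture; protective hits raise ATP signal compared with cytokine alone wells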
Streptokinase A = target: T1, Streptokinase A (Streptococcus pyogenes serotype M1, UniProt P10520); experiment: viability-normalized secreted streptokinase activity reduction – plasminogen activation absorbance, OD405, dose response (AID 1914); type: functional, Streptococcus pyogenes M1 GAS;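 note: secreted streptokinase activity via plasminogen activation per viability signal from cell pellet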
T1 sequence (P10520 whole entry): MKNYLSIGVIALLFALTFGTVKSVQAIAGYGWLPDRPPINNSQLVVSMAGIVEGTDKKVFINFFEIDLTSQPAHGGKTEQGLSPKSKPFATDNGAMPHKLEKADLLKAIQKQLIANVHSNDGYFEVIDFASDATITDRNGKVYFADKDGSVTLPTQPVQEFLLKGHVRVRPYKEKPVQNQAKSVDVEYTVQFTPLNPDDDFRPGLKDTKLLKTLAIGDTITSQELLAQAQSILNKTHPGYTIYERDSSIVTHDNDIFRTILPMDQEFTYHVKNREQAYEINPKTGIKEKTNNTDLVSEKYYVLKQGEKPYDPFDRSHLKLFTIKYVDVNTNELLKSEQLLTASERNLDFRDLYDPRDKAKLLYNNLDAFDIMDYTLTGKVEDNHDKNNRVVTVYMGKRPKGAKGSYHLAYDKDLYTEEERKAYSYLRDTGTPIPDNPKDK

[5] = loss of viability in HepG2 cells – cell-based, CellTiter-Glo, cherry-picked, cytotoxicity control for Shn3 inhibitor project, dose response (AID 624134); type: functional
[6] = non-specific 3'UTR reporter inhibition in Clone20-Shn3RL – cell-based, Renilla luciferase, cherry-picked, counter-screen for Shn3 inhibitor project, dose response (AID 624133); type: functional
[7] = MIN6 cell viability loss – mouse insulinoma, cytotoxicity control, dose response (AID 2122); type: functional;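 note: confirmatory high-throughput counterscreen run to flag cytotoxic compounds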
Cytochrome P450 3A4 = Cytochrome P450 3A4 (Homo sapiens, UniProt P08684);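 note: CYP3A4 tested as one member of a cytochrome P450 panel screen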
Chain of Cytochrome P450 3A4 (P08684 whole entry): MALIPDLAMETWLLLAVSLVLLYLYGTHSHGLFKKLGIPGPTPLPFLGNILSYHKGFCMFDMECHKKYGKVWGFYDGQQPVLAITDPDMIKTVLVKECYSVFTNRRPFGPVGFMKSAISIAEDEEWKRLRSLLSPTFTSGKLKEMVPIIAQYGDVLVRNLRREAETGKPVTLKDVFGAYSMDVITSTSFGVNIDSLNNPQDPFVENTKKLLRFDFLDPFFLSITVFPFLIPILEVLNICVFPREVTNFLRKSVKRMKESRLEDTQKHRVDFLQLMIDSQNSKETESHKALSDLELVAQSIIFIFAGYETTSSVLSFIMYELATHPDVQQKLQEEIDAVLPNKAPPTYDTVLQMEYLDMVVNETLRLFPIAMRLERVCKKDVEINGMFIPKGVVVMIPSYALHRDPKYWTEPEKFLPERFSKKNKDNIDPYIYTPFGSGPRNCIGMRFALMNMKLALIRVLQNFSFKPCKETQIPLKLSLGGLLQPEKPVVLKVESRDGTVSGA

[8] = target: T2, Phosphoethanolamine/phosphocholine phosphatase (Homo sapiens, UniProt Q8TCT1); experiment: SAR assay for compounds that inhibit PHOSPHO1. [Related pubchem assays (depositor defined):AID1545, AID1565, AID1574]
T2 sequence (Q8TCT1 whole entry): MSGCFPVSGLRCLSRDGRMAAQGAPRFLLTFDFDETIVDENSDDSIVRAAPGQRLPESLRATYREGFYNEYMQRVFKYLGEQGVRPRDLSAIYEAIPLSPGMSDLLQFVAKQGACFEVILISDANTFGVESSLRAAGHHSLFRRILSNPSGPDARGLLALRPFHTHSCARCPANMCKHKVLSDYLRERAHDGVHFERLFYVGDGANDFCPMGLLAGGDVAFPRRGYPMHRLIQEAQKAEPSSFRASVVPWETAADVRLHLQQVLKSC

Phosphomannomutase 2 = target: T3, Phosphomannomutase 2 (Homo sapiens, UniProt O15305); experiment: Counter screen SAR assay for PMM2 inhibitors via a fluorescence intensity assay. [Related pubchem assays (depositor defined):AID1545, AID1574]
T3 sequence (O15305 whole entry): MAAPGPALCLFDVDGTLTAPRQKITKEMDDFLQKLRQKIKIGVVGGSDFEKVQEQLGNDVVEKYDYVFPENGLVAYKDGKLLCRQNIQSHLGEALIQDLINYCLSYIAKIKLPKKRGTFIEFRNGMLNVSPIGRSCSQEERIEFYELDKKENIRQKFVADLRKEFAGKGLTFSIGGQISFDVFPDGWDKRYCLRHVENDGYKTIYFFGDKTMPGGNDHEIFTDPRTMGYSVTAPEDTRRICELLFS

[9] = target: T4, Mannose-6-phosphate isomerase (Homo sapiens, UniProt P34949); experiment: phosphomannose isomerase inhibition – biochemical, fluorescence intensity, confirmation (AID 1535)
T4 sequence (P34949 whole entry): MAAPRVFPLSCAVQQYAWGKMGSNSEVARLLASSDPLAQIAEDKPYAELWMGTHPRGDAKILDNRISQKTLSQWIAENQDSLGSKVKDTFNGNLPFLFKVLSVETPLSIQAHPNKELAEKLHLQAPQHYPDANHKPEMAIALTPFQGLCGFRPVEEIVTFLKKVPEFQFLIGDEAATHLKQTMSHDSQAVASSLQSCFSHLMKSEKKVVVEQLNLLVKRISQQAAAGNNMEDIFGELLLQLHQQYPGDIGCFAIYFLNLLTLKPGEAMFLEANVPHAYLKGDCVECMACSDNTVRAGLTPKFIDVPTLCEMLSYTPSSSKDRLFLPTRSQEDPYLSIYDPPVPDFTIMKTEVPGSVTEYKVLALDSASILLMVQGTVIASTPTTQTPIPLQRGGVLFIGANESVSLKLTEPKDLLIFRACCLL

Escherichia coli = experiment: microbe, parasite or virus in culture
CAAX prenyl protease 2 = target: T5, CAAX prenyl protease 2 (Homo sapiens, UniProt Q9Y256); experiment: inhibition of Ras-converting CAAX protease Rce1 – biochemical, yeast membranes, quenched-peptide fluorescence, cherry-pick, dose response (AID 588849)
T5 sequence (Q9Y256 whole entry): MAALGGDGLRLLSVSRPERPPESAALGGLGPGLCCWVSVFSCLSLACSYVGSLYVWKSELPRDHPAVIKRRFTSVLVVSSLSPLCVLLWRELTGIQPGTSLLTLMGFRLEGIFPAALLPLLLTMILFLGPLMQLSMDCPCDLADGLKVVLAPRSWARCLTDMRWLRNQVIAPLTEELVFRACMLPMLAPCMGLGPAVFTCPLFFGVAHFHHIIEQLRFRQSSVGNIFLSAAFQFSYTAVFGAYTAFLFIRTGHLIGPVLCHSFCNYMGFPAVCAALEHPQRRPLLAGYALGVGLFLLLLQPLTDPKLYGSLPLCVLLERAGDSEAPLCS

[10] = Luminescence Cell-Based Dose Confirmation HTS to Identify Activators of 5'UTR Stem-Loop Driven Alpha-Synuclein mRNA Translation in H4 Neuroglioblastoma Cells. [Related pubchem assays: 1829 (Project Summary), 1814 (Primary HTS)]; type: functional
[11] = Luminescence Cell-Based Dose Response HTS to Identify Activators of Luciferase Translation or Activity in H4 […] Cells. [Related pubchem assays: 1829 (Project Summary), 1814 (Primary HTS)]; type: functional
H4 = experiment: Luminescence Cell-Based Dose Response HTS to Identify Activators of 5'UTR Stem-Loop Driven Prion Protein mRNA Translation in H4 Neuroglioblastoma Cells. [Related pubchem assays: 1829 (Project Summary), 1814 (Primary HTS)]; type: functional; details: Homo sapiens
Cytochrome P450 2D6 = Cytochrome P450 2D6 (Homo sapiens, UniProt P10635);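 note: CYP2D6 member of a cytochrome P450 panel assay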
Chain of Cytochrome P450 2D6 (P10635 whole entry): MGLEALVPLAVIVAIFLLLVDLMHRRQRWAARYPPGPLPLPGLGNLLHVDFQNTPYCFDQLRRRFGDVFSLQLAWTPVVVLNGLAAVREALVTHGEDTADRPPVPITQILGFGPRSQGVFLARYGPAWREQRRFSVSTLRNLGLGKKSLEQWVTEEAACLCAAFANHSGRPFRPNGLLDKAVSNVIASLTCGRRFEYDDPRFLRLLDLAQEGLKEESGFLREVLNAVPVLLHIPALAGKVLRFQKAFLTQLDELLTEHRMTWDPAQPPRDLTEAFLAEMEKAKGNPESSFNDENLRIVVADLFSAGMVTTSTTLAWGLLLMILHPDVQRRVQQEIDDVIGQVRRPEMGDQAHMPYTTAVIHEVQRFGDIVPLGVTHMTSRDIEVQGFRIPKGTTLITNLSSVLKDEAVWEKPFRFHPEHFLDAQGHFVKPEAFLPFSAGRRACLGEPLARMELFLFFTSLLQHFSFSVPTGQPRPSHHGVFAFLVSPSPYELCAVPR

[12] = viability of uninfected HEp-2 cells – cell-based, HTS, cytotoxicity control for RSV inhibitor project, dose response (AID 2410); type: functional; details: human respiratory syncytial virus
Vero [13] = experiment: cells; type: functional, cell-based; details: Chlorocebus sabaeus
[14] = target: T6, Low molecular weight phosphotyrosine protein phosphatase (Homo sapiens, UniProt P24666); type: functional; details: read-out: IC50_Mean;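 note: Dose-response confirmation assay measuring inhibition of LMPTP enzyme activity by fluorescence intensity read-out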
T6 sequence (P24666 whole entry): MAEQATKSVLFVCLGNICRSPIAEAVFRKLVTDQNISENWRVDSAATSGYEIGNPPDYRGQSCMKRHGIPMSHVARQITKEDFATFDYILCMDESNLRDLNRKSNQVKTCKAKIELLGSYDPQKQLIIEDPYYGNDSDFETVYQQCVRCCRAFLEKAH

Cytochrome P450 1A2 = target: T7, Cytochrome P450 1A2 (Homo sapiens, UniProt P05177);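 note: PubChem cytochrome P450 panel assay, CYP1A2 panel member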
T7 sequence (P05177 whole entry): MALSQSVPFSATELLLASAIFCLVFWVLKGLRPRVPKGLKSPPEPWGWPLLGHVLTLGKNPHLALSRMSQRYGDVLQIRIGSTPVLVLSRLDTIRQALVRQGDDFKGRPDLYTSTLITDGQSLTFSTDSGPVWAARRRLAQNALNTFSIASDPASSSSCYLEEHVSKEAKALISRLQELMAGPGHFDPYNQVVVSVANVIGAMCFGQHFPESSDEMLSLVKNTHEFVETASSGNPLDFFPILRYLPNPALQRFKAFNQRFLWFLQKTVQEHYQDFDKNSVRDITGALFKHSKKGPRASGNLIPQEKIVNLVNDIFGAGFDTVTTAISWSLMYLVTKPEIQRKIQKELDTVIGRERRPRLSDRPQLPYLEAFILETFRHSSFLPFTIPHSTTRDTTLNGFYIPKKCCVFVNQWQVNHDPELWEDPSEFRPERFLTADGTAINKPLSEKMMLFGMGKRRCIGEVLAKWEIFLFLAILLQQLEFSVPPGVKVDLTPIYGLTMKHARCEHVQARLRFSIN

Which results are given for `CC1=NN(c2nc3ccccc3[nH]2)C(=O)C1Cc1ccccc1` (centres undefined)?
IC50 [1]: 1.53 µM (active); EC50 (Streptococcus): > 150 µM (not active); EC50 [2]: 1.17 µM (active); AC50 [3]: 4.11 µM (active); CC50 (Vero [4]): 2.92 µM (active); AC50 (INS1): 1.43 µM (active); EC50 (Streptokinase A): > 150 µM (not active); AC50 [5]: > 70 µM (inactive); AC50 [6]: 2.6 µM (active); IC50 [7]: 1.43 µM (active)

For `Cn1cccc1C(=O)N1CCC2(CCN(Cc3nccs3)CC2)CC1`, which AC50 (Cytochrome P450 3A4) is on record?
The AC50 was “inconclusive”.

With `O=c1c2ccccc2sn1-c1ccc(S(=O)(=O)N2CCOCC2)cc1` as the compound, how does the IC50 [8] read?
Its IC50 is 545 nM (active).

What about the IC50 (Phosphomannomutase 2) of the same compound?
The IC50 was > 100 µM (inactive).

What about the IC50 [9] of the same compound?
The IC50 was > 50 µM (inactive).

With `Cc1ccn(C(=O)c2ccc(NC(=O)C3CC3)cc2)n1` as the compound, how does the AC50 (Escherichia coli) read?
The AC50 was 22.3 µM (active).

Which AC50 (CAAX prenyl protease 2) does the source give for `COC(C/C=C/[C@@H](O)[C@H](C)OCc1ccccc1)OC` here?
Its AC50 is 16.5 µM (active).

With `NS(=O)(=O)c1ccc(N/N=C/c2cn(-c3ccccc3)nc2-c2ccccc2)c([N+](=O)[O-])c1` as the compound, how does the IC50 [1] read?
The IC50 was 1.05 µM (active).

And the EC50 [10]?
Its EC50 is > 120 µM (not active).

What about the EC50 [11] of the same compound?
The EC50 was > 60 µM (not active).

And the IC50 [7]?
Its IC50 is 3.46 µM (active).

And the EC50 (H4)?
Its EC50 is > 120 µM (not active).

Which AC50 (Cytochrome P450 2D6) does the source give for `O=C(Oc1ccccc1)N1CCC2(CCN(Cc3ccccc3)CC2)CC1` here?
The AC50 was 39.8 µM (inconclusive).

What about the AC50 (Cytochrome P450 3A4) of the same compound?
The AC50 was “inconclusive”.

With `Cc1cccc(NC(=O)CSc2nc3ccccc3nc2N2CCCCC2)c1` as the compound, how does the CC50 (Vero [4]) read?
The CC50 was > 25 µM (active).

What about the CC50 [12] of the same compound?
Its CC50 is 10.3 µM (active).

What about the IC50 (Vero [13]) of the same compound?
Its IC50 is 9.16 µM (active).

And the IC50 (cells)?
The IC50 was 9 µM (active).

Which CC50 [12] does the source give for `CC(=O)/C(C#N)=C1\NC(=O)C(Cc2ccccc2)S1` (centres undefined) here?
The CC50 was 14.4 µM (active).

And the IC50 (Vero [13])?
The IC50 was 9.17 µM (active).

What about the IC50 (cells) of the same compound?
The IC50 was 5.09 µM (active).

What does the source list for `Cc1cc(C(=O)CSc2nc3cc(Cl)ccc3[nH]2)c(C)n1CC1CCCO1` (centres undefined)?
IC50 [1]: 2.74 µM (active); IC50 [7]: 2.99 µM (active)

Which IC50 [14] does the source give for `CCn1cc(C(=O)O)c(=O)c2cc(F)c(N3CCN(C(=S)NC(=O)c4ccc(OC)cc4)CC3)cc21` here?
Its IC50 is 7.26 µM (active).

And the AC50 (Escherichia coli)?
The AC50 was 8.97 µM (active).

Which results are given for `O=C(c1cnccn1)N1CCC2(CC1)CCN(C(c1ccccc1)c1ccccc1)CC2`?
AC50 (Cytochrome P450 1A2): 10 µM (inconclusive); AC50 (Cytochrome P450 3A4): inconclusive

With `[N-]=[N+]=Nc1cc([N+](=O)[O-])cc2sn(-c3ccccc3)c(=O)c12` as the compound, how does the IC50 [8] read?
The IC50 was 498 nM (active).

What about the IC50 (Phosphomannomutase 2) of the same compound?
The IC50 was 96.4 µM (active).

What about the IC50 [9] of the same compound?
The IC50 was > 50 µM (inactive).
